One assay addresses T1, CNR2 (Homo sapiens, UniProt P34972).
T1 construct: Eurofins
Briefly: Eurofins SAFETYscan 78-target panel, off-target effects, CNR2. Particulars: antagonist / blocker / inhibitor mode. In kind it is biochemical. The method, then: (§1) FIG. 9. Table summarizing the Eurofins analysis of potential off-target effects of M1i-124. […] values above 10 μM are generally considered to be acceptable. FIG. 10. Representative hematoxylin and eosin (H&E) staining of organ sections (lung, heart, kidney, liver and adrenal) from control and M1i-124 treated mice described in FIG. 6.
(§2) Studies were performed using the services of Touchstone Biosciences and Eurofins Pharma Discovery Services. […] All blood samples (30-50 ul per sample) were taken via tail vein at 5, 15, and 30 minutes, and 1, 2, 4, 6, 8, and 24 hours after dosing. Blood samples are collected in Greiner MiniCollect K2 EDTA tubes, placed on ice, and within 30 minutes, centrifuged at 15,000 g for 5 minutes to obtain plasma samples. All plasma samples are stored at −70° C. until analysis. Plasma samples were prepared for analysis by LC-MS/MS, and key PK parameters, including terminal half-life (t 112), initial plasma concentration (C0), area under the plasma concentration vs. time curve (AUC), volume of distribution at steady-state (Vss), total plasma clearance (CLp), and mean residence time (MRT), were measured.
(§3) Assay details are available through Eurofins.

For a further assay, the target named is T2, DRD1 (Homo sapiens, UniProt P21728).
T2 construct: Eurofins
T2 sequence (P21728 whole entry): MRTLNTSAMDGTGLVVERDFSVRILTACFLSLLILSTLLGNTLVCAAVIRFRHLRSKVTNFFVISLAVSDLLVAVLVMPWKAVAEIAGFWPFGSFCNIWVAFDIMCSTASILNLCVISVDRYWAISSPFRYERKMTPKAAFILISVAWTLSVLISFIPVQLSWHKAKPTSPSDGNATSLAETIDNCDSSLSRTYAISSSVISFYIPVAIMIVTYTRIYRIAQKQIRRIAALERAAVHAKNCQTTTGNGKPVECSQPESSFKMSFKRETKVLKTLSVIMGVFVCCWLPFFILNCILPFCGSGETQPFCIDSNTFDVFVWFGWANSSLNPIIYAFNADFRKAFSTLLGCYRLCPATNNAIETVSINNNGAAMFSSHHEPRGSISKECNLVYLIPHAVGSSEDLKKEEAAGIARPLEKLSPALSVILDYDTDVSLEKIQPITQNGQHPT
Briefly: Eurofins SAFETYscan 78-target panel, off-target effects, DRD1. In kind it is biochemical. The conditions noted are these: antagonist / blocker / inhibitor mode. The procedure: as §1, §2, §3

The subject of assay [1] is IL-6 and IL-10 secretion in TMD8 cells. Description: IL-6 and IL-10 secretion by TMD8 cells (ELISA). It is filed as cell-based, human. The method, then: Expression of cytokines from cell culture supernatants was measured 24h after treatment with 0, 0.01, 0.03, 0.1, 0.3, 1, or 3 uM of compounds using the following ELISA kits according to the manufacturer's instructions: Human IL-2 ELISA (BioLegend Cat #431804), Human IL-6 ELISA (BioLegend Cat #430504), and Human IL-10 ELISA (BioLegend Cat #430604).
A general note: An ELISA detects its analyte on a solid surface through an enzyme-linked reagent.

The test system of assay [2] is T cell receptor (TCR)-induced phosphorylation of ERK. Briefly: Phosphorylation of ERK in Jurkat T cells (Western blot). In kind it is cell-based. The conditions noted are these: 20 hours pretreatment, anti-CD3/CD28 for 0-20 minutes. The procedure:
The DLBCL cell lines, OCI-Ly1, OCI-Ly3, and OCI-Ly7, were provided by Dr. Mark Minden (University Health Network, Toronto, Ontario, Canada). TMD8 cells were provided by Dr. Louis Staudt (NCI, NIH). OCI-Ly1 and OCI-Ly7 cells were cultured in Iscove's Modified Dulbecco's Medium (IMDM) supplemented with 10% FBS. OCI-Ly3 cells were cultured in IMDM supplemented with 20% FBS. TMD8 and Jurkat T cells were cultured in RPMI1640 medium with 10% FBS. HEK293T cells were cultured in DMEM medium with 10% FBS. All media were supplemented with 100 U/ml penicillin streptomycin. Stimulation of Jurkat cells was conducted by adding 5 ng/ml of phorbol 12-myristatel3 acetate (PMA)(Sigma-Aldrich) and 1μM ionomycin (Calbiochem), or by adding 5-10 μL/mL of ImmunoCult Human CD3/CD28 ([…] Technologies).
In general terms: A western blot detects proteins with antibodies after separation by electrophoresis.

The term IC50 denotes the midpoint of a concentration-inhibition curve. Read a high IC50 as weaker potency.

T1 sequence (P34972 whole entry): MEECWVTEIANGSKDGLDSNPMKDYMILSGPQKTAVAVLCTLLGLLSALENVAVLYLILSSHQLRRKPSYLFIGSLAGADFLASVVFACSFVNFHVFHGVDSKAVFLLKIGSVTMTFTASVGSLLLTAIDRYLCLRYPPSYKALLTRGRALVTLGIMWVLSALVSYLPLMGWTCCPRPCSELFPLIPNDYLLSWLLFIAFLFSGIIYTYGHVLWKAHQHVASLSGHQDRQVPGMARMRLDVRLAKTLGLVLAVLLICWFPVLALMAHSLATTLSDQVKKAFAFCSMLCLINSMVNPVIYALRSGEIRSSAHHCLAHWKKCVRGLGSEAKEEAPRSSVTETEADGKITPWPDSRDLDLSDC

Turning to `O=S(=O)(NCc1ccc2c(c1)OCO2)c1ccc(Cc2ccc(S(=O)(=O)NCc3ccc4c(c3)OCO4)cc2)cc1` [M1i-124], the IC50 against CNR2 came out at 9.9 µM; against DRD1 it was 1.9 µM.

With `COc1ccc(CNS(=O)(=O)c2ccc(Cc3ccc(S(=O)(=O)NCc4ccc(OC)cc4)cc3)cc2)cc1` [M1i-124d1], in assay [1], the IL-6 secretion result is “inhibit IL-6 and IL-10 secretion in a concentration-dependent manner”; the IL-10 secretion result was “inhibit IL-6 and IL-10 secretion in a concentration-dependent manner”. Moreover, the “Phosphorylation of ERK (phospho-ERK/total ERK)” value in assay [2] is reported as “Neither M1i-124 (F) or M1i-124d1 (G) inhibits”.
